Source: patent US11512053B2, “Arginine methyltransferase inhibitors and uses thereof” (priority 2013, dated 2022)
Where two headings read alike, the source gives them in different places.

Experiments:
[1] = biological target: full-length human PRMT6 (Flag- and His-tagged) (Homo sapiens, UniProt Q96LA8); assay: PRMT6 Biochemical Assay (3H-SAM Flashplate, peptide substrate); settings: read-out: Biochemical IC50 PRMT6
In short: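 Radiometric methyltransferase readout: tritium transfer onto a biotin-tagged histone H4 36-50 peptide bearing monomethyl K44 (75 nM), captured on streptavidin Flashplates after stopping with 400 uM unlabeled SAM. Enzyme is baculovirus-expressed Flag-PRMT6-His at 1 nM, given 30 min with compound at room temperature before adding 200 nM 3H-SAM and 250 nM cold SAM (pH 7.6 Bicine, 2% DMSO). Percent inhibition relative to max/min (1 mM SAH) controls, curve-fit to IC50.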

[2] = system: mono-methyl arginine in RKO cells; assay: RKO Methylation Assay, In Cell Western (ICW) for detection of mono-methyl arginine and DNA content; type: cell-based; settings: Homo sapiens, RKO, 72 h, RKO cells, read-out: In Cell Western EC30
In short: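 RKO cells were treated with compound for 72 hours at 37 °C, methanol-fixed and stained overnight at 4 °C with anti-mono-methyl arginine (1:200), with DRAQ5 for DNA. Odyssey 800/700 nm intensity ratio was normalized to DMSO and 20 μM reference-compound controls. EC30 from triplicate nine-point curves.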

[3] = single experiment or average of multiple experiments
[4] = 72 hours compound incubation, mono-methyl arginine signal normalised to DNA content (DRAQ5), percent activation vs 20 μM reference compound
[5] = 72 hours incubation, mono-methyl arginine signal normalised to DNA content, single experiment or average of multiple experiments

Sequence of full-length human PRMT6 (Flag- and His-tagged) (Q96LA8 with tags, fused parts or gaps): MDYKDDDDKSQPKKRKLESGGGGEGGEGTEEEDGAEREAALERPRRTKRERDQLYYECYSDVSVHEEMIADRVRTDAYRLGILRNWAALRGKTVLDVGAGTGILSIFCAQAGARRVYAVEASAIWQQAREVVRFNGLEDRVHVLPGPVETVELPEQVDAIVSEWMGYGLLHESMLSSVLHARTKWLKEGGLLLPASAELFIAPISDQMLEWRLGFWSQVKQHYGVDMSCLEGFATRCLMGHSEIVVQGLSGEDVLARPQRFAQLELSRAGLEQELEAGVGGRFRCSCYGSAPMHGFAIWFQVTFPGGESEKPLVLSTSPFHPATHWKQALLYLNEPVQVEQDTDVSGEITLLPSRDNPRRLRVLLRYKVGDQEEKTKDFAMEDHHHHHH

SMILES | IC50 [1] [nM] | IC50 [1, 3] [nM] | EC30 [2, 4] [nM] | EC30 [2, 5] [nM]
CNCCN(C)Cc1c[nH]nc1[C@H]1CC[C@@]2(CC1)CC(=O)N(CC(C)C)C2 [Compound 156] | < 100 | 57.8 | < 3000 | 1360
CNCCN(C)Cc1c[nH]nc1[C@H]1CC[C@]2(CCN(CC(C)C)C2=O)CC1 [Compound 124] | < 100 | 26.2 | < 3000 | 21.4
CNCCN(C)Cc1c[nH]nc1[C@H]1CC[C@@]2(CCOC2(C)C)CC1 [Compound 106, Methyl [2-(methylamino)ethyl]([3-[(5R,8R)-1,1-dimethyl-2-oxaspiro[4.5]decan-8-yl]-1H-pyrazol-4-yl]methyl)amine] | < 100 | 13.5 | < 3000 | 22.7
CNCCN(C)Cc1c[nH]nc1C1CCC2(CC1)CCN(C)C2=O (stereo not shown) [Compound 152] | < 100 | 35.2 | < 3000 | 119
CCOC1CC2(CCC(c3n[nH]cc3CN(C)CCNC)CC2)CC1OCC (stereo not shown) [Compound 168] | < 100 | 45.1 | < 3000 | 85
CNCCN(C)Cc1c[nH]nc1C1CCC(C)(C)C(O)C1 (stereo not shown) [Compound 185, 2,2-dimethyl-5-[4-({methyl[2-(methylamino)ethyl]amino}methyl)-1H-pyrazol-3-yl]cyclohexan-1-ol] | < 100 | 35.2 | < 3000 | 453
CNCCN(C)Cc1c[nH]nc1C1CCC(O)C2(CCCC2)C1 (stereo not shown) [Compound 182, 9-[4-({methyl[2-(methylamino)ethyl]amino}methyl)-1H-pyrazol-3-yl]spiro[4.5]decan-6-ol] | < 100 | 73.5 | < 3000 | 411
CNCCN(C)Cc1c[nH]nc1C1CCC(CC(C)C)CC1 (stereo not shown) [Compound 169] | < 100 | 17.8 | < 3000 | 16
CNCCN(C)Cc1c[nH]nc1C1=CCC(CCOC)(CCOC)CC1 [Compound 173] | < 100 | 89.9 | < 3000 | 408
CNCCN(C)Cc1c[nH]nc1[C@H]1CC[C@]2(CC1)CC(=O)N(CC(C)C)C2 [Compound 155] | < 100 | 60.8 | 3010 to 12000 | 4080
CNCCN(C)Cc1c[nH]nc1C1CCC2(CC1)OCCCO2 [Compound 160] | 101 to 1000 | 112 | < 3000 | 166
CNCCN(C)Cc1c[nH]nc1C1CCC2(CC1)CN(CC(C)C)C(=O)N2C (stereo not shown) [Compound 145] | < 100 | 38 | < 3000 | 2300
CCOCC1CC(COCC)CC(c2n[nH]cc2CN(C)CCNC)C1 (stereo not shown) [Compound 119] | 1010 to 3000 | 2750 | < 3000 | 77.3
CNCCN(C)Cc1c[nH]nc1C1CCCC(COCCC(O)CO)C1 (stereo not shown) [Compound 113] | < 100 | 66.9 | 3010 to 12000 | 7350
CNCCN(C)Cc1c[nH]nc1[C@H]1CC[C@]2(CCN(Cc3ccc(OCCOC)cc3)C2=O)CC1 [Compound 111] | < 100 | 45.5 | < 3000 | 913
CNCCN(C)Cc1c[nH]nc1[C@H]1CC[C@]2(CCN(Cc3ccccc3)C2=O)CC1 [Compound 128] | < 100 | 13.1 | < 3000 | 1080
CNCCN(C)Cc1c[nH]nc1C1CCC2(CC1)C(=O)N(C)C(=O)N2C (stereo not shown) [Compound 171] | < 100 | 41.1 | < 3000 | 192
CNCCN(C)Cc1c[nH]nc1C1CCC2(CC1)CC(=O)N(Cc1ccc(OC)cc1)C2 (stereo not shown) [Compound 146] | < 100 | 21.7 | < 3000 | 160
CNCCN(C)Cc1c[nH]nc1C1CC(OC(C)C)CC(OC(C)C)C1 (stereo not shown) [Compound 118] | > 10000 | > 10000 | 3010 to 12000 | 9570
CNCCN(C)Cc1c[nH]nc1C1CC(OCC(C)C)CC(OCC(C)C)C1 (stereo not shown) [Compound 122] | > 10000 | > 10000 |  | 346
CNCCN(C)Cc1c[nH]nc1C1CCC(C)CC1 (stereo not shown) [Compound 149] | < 100 | 7.2 | < 3000 | 106
CCN1C(=O)N(C)CC12CCC(c1n[nH]cc1CN(C)CCNC)CC2 (stereo not shown) [Compound 162] | < 100 | 61 | 3010 to 12000 | 6680
CNCCN(C)Cc1c[nH]nc1[C@H]1CC[C@@]2(CCN(Cc3ccc(F)cc3)C2=O)CC1 [Compound 125] | < 100 | 13.1 | < 3000 | 87.6
CCOC1CC(OCC)CC(c2n[nH]cc2CN(C)CCNC)C1 (stereo not shown) [Compound 132] | 3010 to 10000 | 5500 |  | 3.8
CNCCN(C)Cc1c[nH]nc1C1CC(C)OC(C)C1 (stereo not shown) [Compound 179] | < 100 | 62.9 | < 3000 | 476
CNCCN(C)Cc1c[nH]nc1C1CCC2(CC1)CC2 [Compound 144] | < 100 | 35.6 | < 3000 | 63
CNCCN(C)Cc1c[nH]nc1C1CCC2(CC1)CNC(=O)C2 (stereo not shown) [Compound 147] | < 100 | 32.7 | 3010 to 12000 | 8600
CNCCN(C)Cc1c[nH]nc1C1CCC2(CCCCO2)CC1 (stereo not shown) [Compound 137] | < 100 | 23.3 | < 3000 | 15
CNCCN(C)Cc1c[nH]nc1C1CCC2(CCNC2=O)CC1 (stereo not shown) [Compound 176] | < 100 | 36.4 | < 3000 | 2140
CNCCN(C)Cc1c[nH]nc1C1CCC2(CC1)OCCO2 [Compound 177] | 101 to 1000 | 113 | < 3000 | 571
